Patent US11759480B2, “Compositions and methods for CAR T cell therapy” (ENDOCYTE, INC., priority 2017, dated 2023)

Experiments:
[1] = tested on: MDA-MB-231 solid tumor xenografts; experiment: Effect of FITC-Folate dose on anti-FITC CAR T cell response (Example 10); assay type: in vivo, NSG mice
Excerpt: Five experimental groups: (1) anti-FITC CAR T cell with PBS; (2) anti-FITC CAR T cell with FITC-Folate (5 nmoles/kg); (3) anti-FITC CAR T cell with FITC-Folate (50 nmoles/kg); (4) anti-FITC CAR T cell with FITC-Folate (500 nmoles/kg); (5) anti-FITC CAR T cell with FITC-Folate (2500 nmoles/kg) were designed to identify the relationship between anti-FITC CAR T cell response and the dose of FITC-ligands. MDA-MB-231 cells were subcutaneously injected into the shoulders of NSG mice (Jackson Laboratory) to establish solid tumor xenografts. When tumor volume reached around 50-100 mm^3, anti-FITC CAR T cells (15×10^6 cells) and different doses of FITC-Folate were intravenously introduced into the mice.
To monitor anti-FITC CAR T cell activation with the different doses of FITC-Folate, IFN-gamma concentration was measured in mouse blood by a bead-based immunoassay (Legendplex kit from Biolegend). Tumor volume was also measured. General toxicity for each treatment group was monitored by measuring weight loss.

[2] = tested on: KB; experiment: FITC-CAR-T/EC17 therapy, KB model (Example 28); assay type: in vivo, NSG mice
Procedure: (§1) To test whether FITC-CAR-T/EC17 therapy has anti-tumor activity in various FR+ tumor models, NSG mice were subcutaneously implanted with MDA-MB-231 (triple negative breast cancer cell line), OV90 (human ovarian cancer cell line), KB (human cervical adenocarcinoma cell line), SKOV-3 (human ovarian carcinoma cell line), or HEK293-FRa (HEK293 stably-transfected with human FRa). When tumor size reached […], one dose of EC17 at 500 nmol/kg of body weight was injected by tail vein followed with administering of 5 million FITC-CAR-T cells 4 hours later. 500 nmol/kg EC17 was dosed once every week after the initial EC17/CAR-T administration (about day 7), tumor size and body weights of mice were monitored three times per week. The EC17 dosing days were labeled as green dashed vertical lines in the graph. […] EC17 dose-dependent temporary body weight loss was also observed in all tumor bearing mice, indicating the activation of CAR-Ts is EC17-dependent in these mice.

[3] = tested on: MDA-MB-231; experiment: EC17 dependent anti-tumor activity, MDA-MB-231 xenograft (Example 26); assay type: in vivo, NSG mice; conditions: 500 nmoles/kg once per week, 5 million CAR-T
Excerpt: Immunodeficient NSG mice (Jackson Laboratory) were used to show the efficacy of CAR T cell anti-tumor activity with a single dose of EC17 per week. Two folate receptor expressing cancer cell lines were used to establish subcutaneous solid tumor xenografts: MDA-MB-231 has high folate receptor expression, while OV90 has low folate receptor expression. When tumor volume of around 100-250 mm^3 was reached, mice were divided into two groups. Mice in the “EC17 500 nmol/kg” group (nmol/kg is equivalent to nmoles/kg as used in this patent application for the bridge) were injected with 500 nmoles/kg of body weight of EC17, while mice in the “no EC17” group were not injected with EC17. Four hours later, mice in both groups were administered 5 million anti-FITC CAR-T cells. After initial administration of EC17 and CAR-T cells, only mice in the “EC17 500 nmol/kg” group were injected (i.v.) with 500 nmoles/kg of EC17 once per week. Anti-tumor efficacy was monitored by tumor volume.

[4] = tested on: naïve mice without tumors; experiment: CAR-T cells with EC17 in naïve mice without tumors (Example 25); assay type: in vivo; conditions: 500 nmoles/kg three times per week
Procedure: Five million CAR-T cells were injected (i.v.) into naïve mice without tumors. 500 nmoles/kg EC17 was administrated three times per week. Mice were monitored for 5 weeks, and some were euthanized every week to evaluate organs.

[5] = tested on: HEK293-FRa; experiment: FITC-CAR-T/EC17 therapy, HEK293-FRa model (Example 28); assay type: in vivo, NSG mice; conditions: 500 nmol/kg weekly, 5 million FITC-CAR-T
Procedure: as §1

[6] = tested on: MDA-MB-231 cells; experiment: Bridge dose versus lysis and IFNγ release in MDA-MB-231 cell cultures (Example 43); assay type: cell-based, human; conditions: 0.001 to 100,000 nM, Effector:Tumor 5:1
Procedure: FR positive cancer cell lines (e.g. KB or MDA-MB-231 cells) were seeded at density of 10^4 cells/100 μl media into 96 well plates and grown overnight. Anti-fluorescein CAR T cells were added to each well in the absence or presence of bridge molecules. After co-incubation for 6-24 hours, plates were centrifuged at 350×g for 10 min to remove debris and supernatants were analyzed for lactate dehydrogenase release (cell death analysis) using Pierce™ LDH cytotoxicity assay kit (Thermo Fisher Scientific, MA) and interferon γ (IFNγ) levels using human IFNγ ELISA kit (Biolegend, CA), while pellets were either evaluated for CAR T cell activation by staining with anti-human CD69 APC (Clone: FN50, Biolegend, CA) or examined for CAR T cell proliferation by culturing for 5 days in TexMACS™ medium (Miltenyi Biotech Inc, CA) containing 1% penicillin and streptomycin sulfate and quantitating by flow cytometry using the intrinsic GFP fluorescence and staining with anti-human CD3 APC antibody (Clone:HIT3a, Biolegend, CA).
Although a highly elevated and prolonged CRS can often lead to patient death, some level of CRS has been viewed as desirable, since patients displaying no evidence of CRS are not commonly observed to respond to CAR T cell therapies. […]

Nc1nc2ncc(CNc3ccc(C(=O)NC(CCC(=O)NCCNC(=S)Nc4ccc(-c5c6ccc(=O)cc-6oc6cc(O)ccc56)c(C(=O)O)c4)C(=O)O)cc3)nc2c(=O)[nH]1 (centres unmarked) [EC17, FITC-Folate]
concentration of IFN-gamma versus FITC-Folate dose ([1]; 5, 50, 500, 2500 nmoles/kg, 15×10^6 CAR T cells): bell-shaped dose-response curve | dose with maximum toxicity (lowest survival rate) and highest anti-tumor efficacy ([1]; 15×10^6 CAR T cells): 500 nmol/kg | anti-tumor efficacy of CAR T cells ([1]; FITC-Folate 2500 nmole/kg): started to decrease | tumor response ([2]; 500 nmol/kg weekly, 5 million FITC-CAR-T): stable disease | fraction of mice with sCRS ([2]; day 23): ⅔ | fraction of mice with sCRS ([2]; day 37): ⅓ | anti-tumor activity [3]: eliminate MDA-MB-231 tumors | CAR-T cell proliferation (blood count, spleen size) [4]: did not proliferate | body weight ([4]; 5 million CAR-T, 5 weeks): No apparent body weight loss | tumor response [5]: progressive disease | bridge dose with little effect on tumor cell lysis [6]: below 0.01 nM
